Consider 7 molecules from patent US7488759B2, “Malic acid addition salts of terbinafine” (Novartis AG, priority 2001, dated 2009).

The structures appear in SMILES notation. Where a name gives a salt, the structure may show the parent alone. Read-outs that look alike come from different tables or passages of the source. A value given as a limit tells only on which side of the number the result lay.

The nature of series [1]: solubility in water and organic solvents. It is filed as physicochemical. Particulars: for solubility: 25 °C. The source says:
They thus form crystals more readily than the hydrochloride or the free base. […] Polymorphs have different dissolution rates, milling behaviour and stability, e.g. in galenical forms where the pharmaceutically active compound is in solid form, such as tablets or suspensions, and they influence bioavailability. The surprising presence of polymorphism is therefore advantageous in terms of improved processability, such as with polymorph particularly stable thermodynamically, in formulations with compound in solid form, e.g. tablets or suspensions, or with polymorph having a particularly high dissolution rate or solubility, in formulations with dissolved compound, e.g. nail lacquers. The compounds of the invention are therefore better processable for e.g. large scale tablet formulation; they also have favourable penetration/permeation properties and can thus readily be formulated into topical forms, such as nail lacquers. […] Further, they are non-hygroscopic, thus providing stable formulations while minimizing the risk of intrinsic chemical breakdown.

Series [2] can be described thus: in vitro nail penetration/permeation assay (modified Franz cell). Type of series: in vitro ADME, human. Conditions: 72 hours, 1% solution. On the procedure:
Human cadaveric toe nails are used in a Franz cell (FIG. 1) modified to accept cadaveric human toenails by having a pair of flexible rings made of a silicone elastomer (PDMS) having good sealant properties to adequately mount hard nails, using liquid scintillation counting (LSC) (picogram limit of detection) to measure the increase in radioactivity in the acceptor compartment. Each measurement is effected in triplicate. 90 randomly selected nails are exposed for 72 hours to a solution of 100 μl of ^14C-labelled terbinafine hydrochloride or terbinafine L-(−)-hydrogen malate (form A) solution [25 μBq/ml; 1% active product; 5% 1,2-propylene glycol; 2% Cetomacrogol-1000® (polyoxyethylene-glycol-1000-monoacetylether); 25% ethanol 94%; 67% distilled water] (w/w). Each area of the nail exposed to the formulation has a 9 mm diameter (about 64 mm^2). Exposure is effected under occlusive (chamber closed to air) and non-occlusive (chamber open to air) conditions.
The radiolabelled product is detectable in the buffer-filled receptor chamber from about 8 hours of incubation. Its concentration in the receptor chamber as measured by LSC increases with incubation time and concentration of applied formulation. A total of 24 penetration chambers are used in parallel. Each formulation is measured in triplicate.

A short description of series [3]: pharmacokinetic study in Beagle dogs, oral capsules. Type of series: in vivo. Particulars: 7 Beagle dogs, oral capsule 62.5 mg base equivalent. On the procedure:
This appears i.a. from a pharmacokinetic study in animals involving 7 Beagle dogs weighing about 10 kg, aged about 5 years, upon oral administration of capsules prepared by mixing active terbinafine salt substance [hydrochloride or L-(−)-hydrogen malate; 62.5 mg base equivalent per capsule] with lactose in a ratio of 1:1 w/w and filling into appropriate hard gelatine capsules (particle size distribution similar for both salts).

The target in another series is CYP2D6 (Homo sapiens, UniProt P10635). Conditions: cited from earlier work.
On the set-up of series [4]: AUC increase factor in steady state vs single dose: unit not given beside the values. Conditions: cited from earlier work.
Where [5] appears, read: ethanol, organic solvent or mixture, read-out: solubility in ethanol.
[6] abbreviates: Beagle, dog, plasma, po, 62.5 mg.
Where [7] appears, read: human subjects, single 250 mg terbinafine dose.
[8] abbreviates: steady state after several days dosing.

Sequence of CYP2D6 (P10635 whole entry): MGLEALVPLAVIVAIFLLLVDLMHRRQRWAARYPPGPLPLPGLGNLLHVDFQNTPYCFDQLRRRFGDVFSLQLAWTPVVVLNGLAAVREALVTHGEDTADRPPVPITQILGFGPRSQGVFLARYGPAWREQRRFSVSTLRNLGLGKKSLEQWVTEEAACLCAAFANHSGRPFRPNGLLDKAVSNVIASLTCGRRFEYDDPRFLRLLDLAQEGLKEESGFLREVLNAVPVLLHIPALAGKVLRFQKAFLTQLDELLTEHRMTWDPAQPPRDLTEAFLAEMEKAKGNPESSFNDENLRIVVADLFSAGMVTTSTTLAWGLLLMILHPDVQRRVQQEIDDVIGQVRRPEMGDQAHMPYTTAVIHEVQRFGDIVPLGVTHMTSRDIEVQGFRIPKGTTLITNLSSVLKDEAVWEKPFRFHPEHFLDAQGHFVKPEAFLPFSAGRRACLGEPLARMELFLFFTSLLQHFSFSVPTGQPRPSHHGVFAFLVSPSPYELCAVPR

Consider `CN(C/C=C/C#CC(C)(C)C)Cc1cccc2ccccc12` (racemic) [Example 5, Terbinafine DL-(±)-hydrogen malate], for which the solubility in series [1] (setting [5]) was > 50 mg/mL; in series [1] (ethyl acetate, organic solvent or mixture, read-out: solubility in ethyl acetate) it was ~17 mg/mL; in series [1] (water, water, read-out: solubility in water), ~7 mg/mL.
As to `CN(C/C=C/C#CC(C)(C)C)Cc1cccc2ccccc12` [Example 1, Terbinafine L-(−)-hydrogen malate (polymorph form A)], the “solubility in ethyl acetate” value in series [1] (25°) is > 30 mg/mL. In series [1] (25°), the solubility in water was ~12 mg/mL. Also, the solubility in ethanol in series [1] (25°, listed as Example 3) was > 50 mg/mL. Moreover, the solubility in series [1] (aqueous with cosolvent or surfactant or cyclodextrin, solubility, read-out: solubility in ethane/water 2:8 v/v) is > 30 mg/mL; in series [1] (setting [5]), > 30 mg/mL. For the same molecule, the “amount recovered in receptor chamber (permeation)” value is ~41 ng in series [2] (non-occlusive conditions) and “about 63 ng” in series [2] (occlusive conditions).
Turning to `CN(C/C=C/C#CC(C)(C)C)Cc1cccc2ccccc12` [Example 2, Terbinafine L-(−)-hydrogen malate (polymorph form B)], the solubility in water in series [1] (25°) amounted to 15 mg/mL.
The same measure, in the same setting: the same measure for `CN(C/C=C/C#CC(C)(C)C)Cc1cccc2ccccc12` [Example 4, Terbinafine D-(+)-hydrogen malate]: ~7 mg/mL.
For orientation: AUC means concentration integrated over time. As a reminder, the Cmax is the highest concentration seen after dosing. As for `CN(C/C=C/C#CC(C)(C)C)Cc1cccc2ccccc12` [L-(−)-hydrogen malate, terbinafine L-(−)-hydrogen malate], in series [1] (25°), the “solubility in ethyl acetate” value was > 30 mg/mL and the solubility in water was in the range of 12 to 15 mg/mL. In addition, the “coefficient of variation (CV) of AUC, inter-animal variability” value in series [3] is listed as 30%. In series [3] (setting [6]), the AUC came to 392 ng·h/mL and the Cmax turned out to be 134 ng/mL.
With `CN(C/C=C/C#CC(C)(C)C)Cc1cccc2ccccc12` [Terbinafine, (E)-N-methyl-6,6-dimethyl-N-(1-naphthylmethyl)hept-2-en-4-inyl-1-amine], the “inhibition of CYP2D6” value on CYP2D6 was “potent inhibitor”.
`CN(C/C=C/C#CC(C)(C)C)Cc1cccc2ccccc12` [terbinafine hydrochloride]: in series [3] (hydrochloride), the “coefficient of variation (CV) of AUC, inter-animal variability” value came out at 39%; the “mean AUC” value amounted to 348 ng·h/mL; the “mean Cmax” value was 146 ng/mL. The “increase in AUC with a fat-rich meal” value in series [4] (administered with a fat-rich meal) was 42%. Further, in series [4] (setting [7]), the “Peak drug plasma concentration (Cmax)” value is listed as “about 1.3 μg/ml” and the “area under the curve over 24 hours (AUC)” value is “about 4.76 μg·hour/ml”. In addition, in series [4] (human, in vivo), the effective half-life result is reported as “about 36 hours”. In series [4] (patients with renal impairment (creatinine clearance ≤50 ml/min) or hepatic cirrhosis), the reduction of clearance entry was “approximately 50%”. Moreover, in series [4] (setting [8]), the “AUC increase factor in steady state vs single dose” value is given as 2.5 and the “Cmax higher in steady state vs single dose” value is 25%.
